Test results from ChEMBL document CHEMBL5500371, “Arginine and tryptophan-rich dendritic antimicrobial peptides that disrupt membranes for bacterial infection in vivo” (Eur J Med Chem, 2024).
Converted amounts (≈) assume the structure as drawn. Where a SMILES comes first, the peptide text is derived from it. Side-chain parts run from the residue outwards.

Assays:
[1] = (§1) Cytotoxicity against HEK293T cells assessed as cell death measured after 1 hr by resazurin dye based analysis; type: toxicity, HEK-293T; conditions: human, HEK293T cells
Escherichia coli [2] = assay: Antibacterial activity against Escherichia coli ATCC 25922 assessed as inhibition of bacterial growth incubated for 20 hrs in presence of FeCl3 by broth microdilution method (reference value: 8 microM); type: functional
Acinetobacter baumannii = assay: Antibacterial activity against Acinetobacter baumannii ATCC 19606 assessed as inhibition of bacterial growth incubated for 20 hrs by broth microdilution method; type: functional
[3] = Therapeutic index, ratio of MHC10 for hemolytic activity in mouse erythrocytes preincubated with 10% mouse serum for 6 hrs to MIC for Escherichia coli ATCC 25922 preincubated with 10% mouse serum for 6 hrs; type: toxicity, cell-based
Escherichia coli [4] = assay: Antibacterial activity against Escherichia coli ATCC 25922 assessed as inhibition of bacterial growth preincubated with 10% mouse serum for 6 hrs and measured after 20 hrs by broth microdilution method; type: functional; conditions: time 26 hrs
[5] = Stability in mouse serum assessed as half life at 10 mM measured upto 24 hrs by RP-HPLC analysis; type: ADME, cell-free
Staphylococcus aureus [6] = assay: Antibacterial activity against Staphylococcus aureus ATCC 25923 assessed as inhibition of bacterial growth preincubated with 10% mouse serum for 6 hrs and measured after 20 hrs by broth microdilution method; type: functional; conditions: time 21 hrs
Staphylococcus aureus [7] = assay: Antibacterial activity against Staphylococcus aureus ATCC 25923 assessed as inhibition of bacterial growth by measuring fold increase in MIC incubated for 20 hrs in presence of FeCl3 by broth microdilution method relative to control; type: functional
Klebsiella pneumoniae = assay: Antibacterial activity against Klebsiella pneumoniae ATCC 700603 assessed as inhibition of bacterial growth incubated for 20 hrs by broth microdilution method; type: functional
Bacillus subtilis = assay: Antibacterial activity against Bacillus subtilis ATCC 23857 assessed as inhibition of bacterial growth incubated for 20 hrs by broth microdilution method; type: functional
[8] = Therapeutic index, ratio of MHC10 for hemolytic activity in mouse erythrocytes preincubated with 10% mouse serum for 6 hrs to MIC for Staphylococcus aureus ATCC 25923 preincubated with 10% mouse serum for 6 hrs; type: toxicity, cell-based
Staphylococcus aureus [9] = assay: Antibacterial activity against Staphylococcus aureus ATCC 25923 assessed as inhibition of bacterial growth incubated for 20 hrs in presence of NaCl by broth microdilution method (reference value: 8 microM); type: functional
Staphylococcus aureus [10] = assay: Antibacterial activity against Staphylococcus aureus ATCC 25923 assessed as inhibition of bacterial growth incubated for 20 hrs in presence of FeCl3 by broth microdilution method (reference value: 8 microM); type: functional
Staphylococcus aureus [11] = assay: Antibacterial activity against Staphylococcus aureus ATCC 25923 assessed as inhibition of bacterial growth by measuring fold increase in MIC incubated for 20 hrs in presence of MgCl2 by broth microdilution method relative to control; type: functional
Staphylococcus aureus [12] = assay: Antibacterial activity against Staphylococcus aureus ATCC 25923 assessed as inhibition of bacterial growth by measuring fold increase in MIC incubated for 20 hrs in presence of ZnCl2 by broth microdilution method relative to control; type: functional
Pseudomonas aeruginosa = assay: Antibacterial activity against Pseudomonas aeruginosa ATCC 27853 assessed as inhibition of bacterial growth incubated for 20 hrs by broth microdilution method; type: functional
[13] = Therapeutic index, ratio of MHC10 for hemolytic activity in mouse erythrocytes preincubated with 10% mouse serum for 1 hr to MIC for Staphylococcus aureus ATCC 25923 preincubated with 10% mouse serum for 1 hr; type: toxicity, cell-based
Escherichia coli [14] = assay: Antibacterial activity against Escherichia coli ATCC 25922 assessed as inhibition of bacterial growth incubated for 20 hrs in presence of ZnCl2 by broth microdilution method (reference value: 8 microM); type: functional
Staphylococcus aureus [15] = assay: Antibacterial activity against Staphylococcus aureus ATCC 25923 assessed as inhibition of bacterial growth incubated for 20 hrs in presence of ZnCl2 by broth microdilution method (reference value: 8 microM); type: functional
Staphylococcus aureus [16] = assay: Antibacterial activity against Staphylococcus aureus ATCC 25923 assessed as inhibition of bacterial growth incubated for 20 hrs in presence of KCl by broth microdilution method (reference value: 8 microM); type: functional
Escherichia coli [17] = assay: Antibacterial activity against Escherichia coli ATCC 25922 assessed as inhibition of bacterial growth incubated for 20 hrs in presence of NaCl by broth microdilution method (reference value: 8 microM); type: functional
[18] = Hemolytic activity in mouse erythrocytes at 256 uM preincubated for 1 to 6 hr with 10% mouse serum and measured after 1 hr by absorbance based analysis; type: toxicity, cell-based, Erythrocyte; conditions: time 1-7 hrs, read-out: Activity
Staphylococcus aureus [19] = assay: Antibacterial activity against Staphylococcus aureus ATCC 25923 assessed as inhibition of bacterial growth preincubated with 10% mouse serum for 1 hr and measured after 20 hrs by broth microdilution method; type: functional; conditions: time 21 hrs
Staphylococcus aureus [20] = assay: Antibacterial activity against Staphylococcus aureus ATCC 25923 assessed as inhibition of bacterial growth incubated for 20 hrs by broth microdilution method; type: functional
[21] = Therapeutic index, ratio of MHC10 for hemolytic activity in mouse erythrocytes preincubated with 10% mouse serum for 1 hr to MIC for Escherichia coli ATCC 25922 preincubated with 10% mouse serum for 1 hr; type: toxicity, cell-based
Staphylococcus aureus [22] = assay: Antibacterial activity against Staphylococcus aureus ATCC 25923 assessed as inhibition of bacterial growth by measuring fold increase in MIC incubated for 20 hrs in presence of KCl by broth microdilution method relative to control; type: functional
Escherichia coli [23] = assay: Antibacterial activity against Escherichia coli ATCC 25922 assessed as inhibition of bacterial growth incubated for 20 hrs in presence of MgCl2 by broth microdilution method (reference value: 8 microM); type: functional
Escherichia coli [24] = assay: Antibacterial activity against Escherichia coli ATCC 25922 assessed as inhibition of bacterial growth incubated for 20 hrs in presence of KCl by broth microdilution method (reference value: 8 microM); type: functional
Staphylococcus aureus [25] = assay: Antibacterial activity against Staphylococcus aureus ATCC 25923 assessed as inhibition of bacterial growth incubated for 20 hrs in presence of MgCl2 by broth microdilution method (reference value: 8 microM); type: functional
Escherichia coli [26] = assay: Antibacterial activity against Escherichia coli ATCC 25922 assessed as inhibition of bacterial growth preincubated with 10% mouse serum for 1 hr and measured after 20 hrs by broth microdilution method; type: functional; conditions: time 21 hrs
Escherichia coli [27] = assay: Antibacterial activity against Escherichia coli ATCC 25922 assessed as inhibition of bacterial growth incubated for 20 hrs by broth microdilution method; type: functional
Erythrocyte = assay: Hemolytic activity in mouse erythrocytes assessed as 10% hemolysis incubated for 1 hr by absorbance based analysis; type: toxicity, cell-based
Staphylococcus aureus [28] = assay: Antibacterial activity against Staphylococcus aureus ATCC 25923 assessed as inhibition of bacterial growth by measuring fold increase in MIC incubated for 20 hrs in presence of NaCl by broth microdilution method relative to control; type: functional
[29] = Systemic toxicity in male BALB/c mouse assessed as inflammatory cell infiltration at 20.83 mg/kg, ip administered as single dose by H and E staining based analysis; type: organism-based; conditions: in vivo
HEK-293T = assay: as §1; type: toxicity; conditions: human, hek-293t, 1 h
[30] = Systemic toxicity in male BALB/c mouse assessed as hemorrhage at 20.83 mg/kg, ip administered as single dose by H and E staining based analysis; type: organism-based; conditions: in vivo
[31] = Acute toxicity in male BALB/c mouse assessed as eye closure at 16.3 to 24.5 mg/kg, ip administered as single dose and measured after 60 mins; type: organism-based; conditions: in vivo, 1 h, dose 16.3-24.5 mg/kg
[32] = Systemic toxicity in male BALB/c mouse assessed as pathological changes in heart at 20.83 mg/kg, ip administered as single dose by H and E staining based analysis; type: organism-based; conditions: in vivo
[33] = Systemic toxicity in male BALB/c mouse assessed as marked alveolar cavity wrinkling at 20.83 mg/kg, ip administered as single dose by H and E staining based analysis; type: organism-based; conditions: in vivo
[34] = Acute toxicity in male BALB/c mouse assessed as mortality rate at 24.5 mg/kg, ip administered as single dose and measured after 120 mins relative to control; type: organism-based; conditions: in vivo, 2 h
[35] = Acute toxicity in male BALB/c mouse assessed as convulsions at 16.3 to 24.5 mg/kg, ip administered as single dose and measured after 60 mins; type: organism-based; conditions: in vivo, 1 h, dose 16.3-24.5 mg/kg
[36] = Acute toxicity in male BALB/c mouse assessed as animal death at 16.3 to 24.5 mg/kg, ip administered as single dose and measured after 60 mins; type: organism-based; conditions: in vivo, 1 h, dose 16.3-24.5 mg/kg
[37] = Systemic toxicity in male BALB/c mouse assessed as severe hepatocyte necrosis at 20.83 mg/kg, ip administered as single dose by H and E staining based analysis; type: organism-based; conditions: hepatocytes
[38] = Acute toxicity in male BALB/c mouse assessed as respiratory asthenia at 16.3 to 24.5 mg/kg, ip administered as single dose and measured after 60 mins; type: organism-based; conditions: in vivo, 1 h, dose 16.3-24.5 mg/kg
[39] = Acute toxicity in ip dosed male BALB/c mouse administered as single dose; type: organism-based; conditions: in vivo, ip
[40] = mouse erythrocytes, read-out: TI

N=C(N)NCCC[C@H](NC(=O)[C@H](CCCNC(=N)N)NC(=O)[C@H](CCCNC(=N)N)NC(=O)[C@H](CCCNC(=N)N)NC(=O)[C@H](CCCCNC(=O)[C@H](Cc1c[nH]c2ccccc12)NC(=O)[C@@H](N)Cc1c[nH]c2ccccc12)NC(=O)[C@H](Cc1c[nH]c2ccccc12)NC(=O)[C@@H](N)Cc1c[nH]c2ccccc12)C(N)=O (H-WWK([Trp-Trp])RRRR-NH2)
CC50 at 1 h [1]: > 128 µM
MIC (Escherichia coli [2]): 8 µM
MIC (Acinetobacter baumannii): 64 µM (≈ 96.9 µg/mL)
selectivity ratio [3, 40]: 0.06
MIC (Escherichia coli [4]): 16 µM (≈ 24.2 µg/mL)
half-life at 10000 µM [5]: 32.4 min
MIC (Staphylococcus aureus [6]): 8 µM (≈ 12.1 µg/mL)
fold change (FC) (Staphylococcus aureus [7]): <=2
MIC (Klebsiella pneumoniae): 128 µM (≈ 194 µg/mL)
MIC (Bacillus subtilis): 8 µM (≈ 12.1 µg/mL)
selectivity ratio [8, 40]: 0.13
MIC (Staphylococcus aureus [9]): 8 µM
MIC (Staphylococcus aureus [10]): 8 µM
fold change (FC) (Staphylococcus aureus [11]): <=2
fold change (FC) (Staphylococcus aureus [12]): <=2
MIC (Pseudomonas aeruginosa): 32 µM (≈ 48.5 µg/mL)
selectivity ratio [13, 40]: 0.5
MIC (Escherichia coli [14]): 8 µM
MIC (Staphylococcus aureus [15]): 8 µM
MIC (Staphylococcus aureus [16]): 8 µM
MIC (Escherichia coli [17]): 16 µM
hemolysis at 1 h, 256 µM [18]: < 10%
MIC (Staphylococcus aureus [19]): 2 µM (≈ 3.03 µg/mL)
MIC (Staphylococcus aureus [20]): 8 µM (≈ 12.1 µg/mL)
selectivity ratio [21, 40]: 0.5
fold change (FC) (Staphylococcus aureus [22]): <=2
MIC (Escherichia coli [23]): 8 µM
MIC (Escherichia coli [24]): 8 µM
MIC (Staphylococcus aureus [25]): 8 µM
MIC (Escherichia coli [26]): 2 µM (≈ 3.03 µg/mL)
MIC (Escherichia coli [27]): 8 µM (≈ 12.1 µg/mL)
MHC10 (Erythrocyte): > 256 µM
fold change (FC) (Staphylococcus aureus [28]): <=2

POLYMYXIN B
Activity [29]: Toxic
CC50 (HEK-293T): > 128 µM
TI ([3]; erythrocytes): 0.5
Activity [30]: Toxic
Activity [31]: Toxic
TI ([8]; erythrocytes): 1
Activity [32]: Non-Toxic
Activity [33]: Toxic
Activity [34]: 100%
TI ([13]; erythrocytes): 1
Activity [35]: Toxic
TI ([21]; erythrocytes): 1
Activity [36]: Toxic
Activity [37]: Toxic
Activity [38]: Toxic
LD50 [39]: 20.83 mg/kg
MHC10 (Erythrocyte): > 256 µM
